Measurements published in EP4796538A1, “NOVEL QUINOXALINE COMPOUNDS, MANUFACTURING METHOD THEREOF, AND USES THEREOF” (Gachon University of Industry-Academic Cooperation …, priority 2023, dated 2025).

How the values were obtained:
RET(G810R) = target: T1, RET(G810R) (Homo sapiens, UniProt P07949, G810R); test: Kinase panel inhibition, radiolabeled [γ-33P] ATP (Reaction Biology Corp); assay type: biochemical; settings: for remaining activity at 1 µM: compound at 1 uM, ATP 10 µM, read-out: % Enzyme Activity (relative to DMSO controls) G810R; for IC50: read-out: Enzymatic inhibitory activity (IC50) nM G810R
T1 construct: purchased Reaction Biology Corp
Method: Using radiolabeled ATP ([γ-33P] ATP), the degree to which the substrate was replaced by a 33P-phosphorylated substrate was measured, and changes in kinase activity were determined from the measurement of the radiolabeled phosphorylated substrate.

BaF3 KIF5B-RET (V804M) = test: Cell proliferation inhibition, Cell Counting Kit-8, Ba/F3 cell line; assay type: cell-based, rodent; settings: Mus musculus, 72 hours incubation, read-out: Cell Viability of BaF3 Cell lines (IC50 in uM) KIF5B-RET (V804M)
Method: (§1) To evaluate the inhibitory activity of the compounds represented by Formula I or Formula IV according to the present invention against RET mutation-driven cell growth in the Ba/F3 cell line and against cell growth in the non-small cell lung cancer cell line A-549, the following experiment was performed.
(§2) Each cell line was seeded in a 96-well plate at 1×10^4 cells/90 µL/well, and 10 µL/well of culture medium containing each example and intermediate compound or DMSO control at 9 concentrations (1 nM to 100 µM) prepared by 3-fold serial dilutions was added to achieve a final concentration of 0 to 100 µM, followed by incubation for 72 hours in a 37°C, 5% CO2 incubator. After 72 hours of incubation, the compound-treated plates were removed, and Cell Counting Kit-8 solution was added at 10 µL/well and mixed well. The plates were then incubated for 2 hours in a CO2 incubator at 37°C, and the absorbance was measured at 450 nm using a microplate reader.
The absorbance of the experimental group relative to that of the DMSO control group was converted to % survival, and the IC50 values representing the concentration required to inhibit cell growth by 50% were calculated. As a control compound, selpercatinib, a known RET inhibitor, was treated to calculate the IC50 values.

BaF3-RET(V804M) = test: Cell proliferation inhibition (GI50), Cell Counting Kit-8, Ba/F3 cell line; assay type: cell-based, rodent; settings: Mus musculus, BaF3; 72 hours incubation; Cell Counting Kit-8; read-out: GI50 of BaF3-RET(V804M)
Method: as §1, §2
In addition, the data were expressed as a percentage relative to vehicle-treated cells, and GI50 values were calculated using GraphPad Prism 8.0 (GraphPad Software Inc., San Diego), and the results are shown in Table 8 below. As a control compound, ponatinib, a known RET inhibitor, was treated to calculate the GI50 values.

T1 sequence (P07949 29-1114 G810R): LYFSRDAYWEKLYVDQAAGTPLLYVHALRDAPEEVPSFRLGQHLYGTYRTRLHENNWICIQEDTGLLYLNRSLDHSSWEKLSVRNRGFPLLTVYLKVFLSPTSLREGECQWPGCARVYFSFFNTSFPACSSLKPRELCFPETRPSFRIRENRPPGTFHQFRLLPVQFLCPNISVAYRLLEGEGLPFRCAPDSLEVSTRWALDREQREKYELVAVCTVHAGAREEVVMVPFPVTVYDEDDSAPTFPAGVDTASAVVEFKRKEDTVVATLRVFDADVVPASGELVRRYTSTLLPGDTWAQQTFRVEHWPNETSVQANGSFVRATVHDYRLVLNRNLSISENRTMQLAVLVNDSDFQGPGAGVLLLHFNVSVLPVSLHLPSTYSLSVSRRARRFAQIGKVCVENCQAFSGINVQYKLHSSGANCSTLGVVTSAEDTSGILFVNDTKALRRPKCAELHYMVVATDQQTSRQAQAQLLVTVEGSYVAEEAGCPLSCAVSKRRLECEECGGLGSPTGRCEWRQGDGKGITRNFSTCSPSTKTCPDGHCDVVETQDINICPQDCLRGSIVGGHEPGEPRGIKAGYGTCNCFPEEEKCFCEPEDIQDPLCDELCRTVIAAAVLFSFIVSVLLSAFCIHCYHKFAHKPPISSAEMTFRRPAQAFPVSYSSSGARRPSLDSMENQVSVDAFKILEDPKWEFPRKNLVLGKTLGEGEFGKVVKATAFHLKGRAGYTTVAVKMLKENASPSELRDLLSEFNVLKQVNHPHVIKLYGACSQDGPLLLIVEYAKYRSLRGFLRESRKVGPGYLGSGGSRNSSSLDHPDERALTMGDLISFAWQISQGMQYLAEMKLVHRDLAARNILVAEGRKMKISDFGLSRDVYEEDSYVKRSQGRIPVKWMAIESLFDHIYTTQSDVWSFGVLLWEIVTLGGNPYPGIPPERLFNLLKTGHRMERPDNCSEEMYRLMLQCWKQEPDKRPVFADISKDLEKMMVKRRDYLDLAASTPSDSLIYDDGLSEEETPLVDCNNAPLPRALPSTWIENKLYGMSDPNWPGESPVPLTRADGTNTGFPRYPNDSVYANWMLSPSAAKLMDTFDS

| SMILES | remaining activity at 1 µM (RET(G810R)) [%] | IC50 (RET(G810R)) [nM] | IC50 (BaF3 KIF5B-RET (V804M)) [µM] | GI50 (BaF3-RET(V804M)) [nM] |
| --- | --- | --- | --- | --- |
| CCNc1cc(-c2ccc(N3CC(Oc4cccc(F)c4)C3)nc2)c2nccnc2c1 [Example 3, N-ethyl-8-(6-(3-(3-fluorophenoxy)azetidin-1-yl)pyridin-3-yl)quinoxalin-6-amine] | 11.4 | 142 | 0.12 | 661 |
| Nc1cc(-c2ccc(N3CC(Oc4cccc(F)c4)C3)nc2)c2nccnc2c1 [Example 1, 8-(6-(3-(3-fluorophenoxy)azetidin-1-yl)pyridin-3-yl)quinoxalin-6-amine] | 24.5 | 275 | 1.02 | 1460 |
